In patent US10662195B2, “Protein kinase conjugates and inhibitors” (Celgene Avilomics Research, Inc., priority 2009, dated 2020):

What was measured:
CKIT = assay: cKIT washout assay in GIST882 cells (C-kit phosphorylation, western blot); assay type: cell-based
Description: GIST882 cells (See, Bauer et al., Cancer Research, 66(18):9153-9161 (2006)) were seeded in a 6 well plate at a density of 8×10^5 cells/well in complete media. The next day cells were treated with 1 uM compound diluted in complete media for 90 minutes. After 90 minutes, the media was removed and cells were washed with compound-free media. Cells were washed every 2 hours and resuspended in fresh compound-free media. Cells were collected at specified time points, lysed in Cell Extraction Buffer (Invitrogen FNN0011) supplemented with Roche complete protease inhibitor tablets (Roche 11697498001) and phosphatase inhibitors (Roche 04 906 837 001) and lysates were sheared by passing through a 28.5 gauge syringe 10 times each. Protein concentrations were measured and 10 ug total protein lysate was loaded in each lane. C-kit phosphorylation was assayed by western blot with pTyr (4G10) antibody and total kit antibody from Cell Signaling Technology.
Sorafenib and XVIII-11 were tested for cellular activity in a GIST882 cell line at 1 micromolar. The results are depicted in FIGS. 2a and 2b where it is shown that XVIII-11 maintained c-KIT enzyme inhibition in […] cells after “washout” for at least 8 hours. […] In order to understand whether there was a prolonged inhibition with the irreversible inhibitor the cells were washed free of compound. For the reversible inhibitor, Sorafenib, the inhibitory activity of cKIT and downstream signaling was overcome whereas the irreversible inhibition of XVIII-11 persisted for at least 8 hours.

ERK = assay: cKIT washout assay, downstream signaling (ERK phosphorylation); assay type: cell-based; settings: GIST882 cell line, 1 micromolar, 90 minutes
Description: The next day cells were treated with 1 uM compound diluted in complete media for 90 minutes. After 90 minutes, the media was removed and cells were washed with compound-free media. Cells were washed every 2 hours and resuspended in fresh compound-free media. […] Protein concentrations were measured and 10 ug total protein lysate was loaded in each lane. C-kit phosphorylation was assayed by western blot with pTyr (4G10) antibody and total kit antibody from Cell Signaling Technology.
Sorafenib and XVIII-11 were tested for cellular activity in a GIST882 cell line at 1 micromolar. The results are depicted in FIGS. 2a and 2b where it is shown that XVIII-11 maintained c-KIT enzyme inhibition in […] cells after “washout” for at least 8 hours. […] In order to understand whether there was a prolonged inhibition with the irreversible inhibitor the cells were washed free of compound.

FAK (PTK2) = FAK (PTK2) (Homo sapiens, UniProt Q05397); assay: Mass spectral analysis of intact FAK after incubation with compound; assay type: binding; settings: 1 hr, 10× excess of compound to protein; for modification of FAK (PTK2) by compound, mass spec: intact protein MALDI
Sequence of FAK (PTK2) (Q05397 whole entry): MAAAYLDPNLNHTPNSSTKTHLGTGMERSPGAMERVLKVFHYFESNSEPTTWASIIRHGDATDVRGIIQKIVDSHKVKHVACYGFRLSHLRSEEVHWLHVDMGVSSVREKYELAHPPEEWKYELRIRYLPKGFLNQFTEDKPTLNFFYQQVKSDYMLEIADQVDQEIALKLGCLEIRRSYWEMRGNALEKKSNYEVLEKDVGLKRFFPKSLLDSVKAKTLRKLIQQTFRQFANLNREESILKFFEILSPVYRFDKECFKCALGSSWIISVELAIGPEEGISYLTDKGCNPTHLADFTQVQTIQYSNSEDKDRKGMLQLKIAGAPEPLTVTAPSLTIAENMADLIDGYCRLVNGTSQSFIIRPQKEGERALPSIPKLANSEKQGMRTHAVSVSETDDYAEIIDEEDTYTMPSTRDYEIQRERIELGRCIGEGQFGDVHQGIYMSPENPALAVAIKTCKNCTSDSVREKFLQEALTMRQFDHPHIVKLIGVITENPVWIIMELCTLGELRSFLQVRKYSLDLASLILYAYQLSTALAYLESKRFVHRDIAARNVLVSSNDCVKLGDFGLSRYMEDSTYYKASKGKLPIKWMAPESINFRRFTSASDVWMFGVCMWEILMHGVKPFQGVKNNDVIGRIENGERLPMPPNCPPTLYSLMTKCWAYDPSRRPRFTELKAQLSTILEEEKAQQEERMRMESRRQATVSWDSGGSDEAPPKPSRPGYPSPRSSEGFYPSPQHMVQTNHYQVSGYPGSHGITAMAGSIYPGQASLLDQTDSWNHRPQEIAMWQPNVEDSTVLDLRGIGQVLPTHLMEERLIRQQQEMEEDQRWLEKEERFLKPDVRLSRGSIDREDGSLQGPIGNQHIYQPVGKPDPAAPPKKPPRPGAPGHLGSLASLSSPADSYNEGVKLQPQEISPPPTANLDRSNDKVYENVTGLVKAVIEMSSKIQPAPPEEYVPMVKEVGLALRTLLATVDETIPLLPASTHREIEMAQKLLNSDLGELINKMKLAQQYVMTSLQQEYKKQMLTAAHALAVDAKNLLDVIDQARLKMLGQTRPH
Description: Intact FAK (PTK2) was incubated for 1 hr at a 10× fold access of compound IV-29 to protein. 3 ul aliquots of the samples were diluted with 10 ul of 0.1% TFA prior to micro C4 ZipTipping directly onto the MALDI target using Sinapinic acid as the desorption matrix (10 mg/ml in 0.1% TFA:Acetonitrile 50:50). Mass spec analysis was run on intact FAK (PTK2) protein (m/z 146,672 Da), and on FAK that was incubated with compound IV-29 (mw=669.2).

FAK = target: T1, FAK (Homo sapiens, UniProt Q05397); assay: FAK biochemical assay (OMNIA kinase assay, pre-activated FAK); settings: FAK=15 nM, ATP=100 μM, 30 min pre-incubation
T1 construct: purchased Invitrogen (Madison, Wis.) M4446
T1 sequence (Q05397 whole entry): as above
Description: Activities of FAK inhibitors were assessed in an OMNIA® kinase assay (Invitrogen, Carlsbad, Calif.) using pre-activated FAK enzyme. Briefly, a 10× stock of pre-activated FAK enzyme (M4446) from Invitrogen (Madison, Wis.), 1.13×ATP (AS001A) and Y3-Sox conjugated peptide substrate (YP003A) were prepared in 1× kinase reaction buffer consisting of 20 mM Tris, pH 7.5, 5 mM MgCl2, 1 mM EGTA, 5 mM β-glycerophosphate, 5% glycerol (10× stock, KB002A) and 0.2 mM DTT (DS001A). 5 μL of enzyme were pre-incubated in a Corning (#3574) 384-well, white, non-binding surface microtiter plate (Corning, N.Y.) for 30 min at 27° C. with a 0.5 μL volume of 50% DMSO and serially diluted compounds prepared in 50% DMSO. Kinase reactions were started with the addition of 45 μL of ATP/Y3-Sox peptide substrate mix and monitored every 30-90 seconds for 60 minutes at λex360/λem485 in a Synergy^4 plate reader from BioTek (Winooski, Vt.). […] Initial velocity (0 minutes to ˜30 minutes) from each reaction was determined from the slope of a plot of relative fluorescence units vs time (minutes) and then plotted against inhibitor concentration to estimate IC50 from log [Inhibitor] vs Response, Variable Slope model in GraphPad Prism from GraphPad Software (San Diego, Calif.). […]

Row | Structure (SMILES) | inhibitory activity of cKIT and downstream signaling after washout (CKIT; 1 uM for 90 minutes, then washed free of compound) | inhibition of cKIT autophosphorylation (CKIT; GIST882 cell line, 1 micromolar, 90 minutes) | inhibition of downstream signaling of ERK (ERK) | positive shift of centroid mass of FAK (FAK (PTK2)) | modification of FAK (PTK2) by compound, mass spec (FAK (PTK2)) | IC50 (FAK) [nM]
1 | CNC(=O)c1cc(Oc2ccc(NC(=O)Nc3ccc(Cl)c(C(F)(F)F)c3)cc2)ccn1 [Sorafenib, sorafenib] | overcome | inhibited cKIT autophosphorylation | inhibited |  |  | 
2 | C=CC(=O)Nc1ccc(C(=O)NC2(C)CCN(c3ccc(Nc4ncc(Cl)c(Nc5ccccc5C(=O)NC)n4)c(OC)c3)CC2)cc1 [IV-29, 2-(2-(4-(4-(4-acrylamidobenzamido)-4-methylpiperidin-1-yl)-2-methoxyphenylamino)-5-chloropyrimidin-4-ylamino)-N-methylbenzamide] |  |  |  | about 365 Da | almost complete modification of FAK | 5.24
3 | C=CC(=O)N1CCC2(CCCN(c3ccc(Nc4ncc(Cl)c(Nc5ccccc5C(=O)NC)n4)c(OC)c3)C2)CC1 [IV-30, 2-{2-[4-(9-Acryloyl-2,9-diaza-spiro[5.5]undec-2-yl)-2-methoxy-phenylamino]-5-chloro-pyrimidin-4-ylamino}-N-methyl-benzamide] |  |  |  |  | did not modify FAK | 5.89
